Laboratory results published in patent publication US20170050957A1, “4-AMINO-6-(HETEROCYCLIC)PICOLINATES AND 6-AMINO-2-(HETEROCYCLIC)PYRIMIDINE-4-CARBOXYLATES AND THEIR USE AS HERBICIDES” (Dow AgroSciences LLC, priority 2013, published 2017).
Where two headings read alike, the source gives them in different places. Blank lines part the entries; values can stand above or below the molecule they belong to.

How the values were obtained:
[1] = system: Key Broadleaf Weed and Crop Species; test: Post-emergent Test II herbicidal activity (Table 15); assay type: in vivo; conditions: post-emergence, 336 h, 14 d; for pest or weed control at 35 g/ha: 35 g ai/ha; for pest or weed control at 70 g/ha: 70 g ai/ha; for pest or weed control at 140 g/ha: 140 g ai/ha
How it was run: (§1)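 Herbicidal effect scored as percent visual injury, 14 d after post-emergent application. Spray solutions contained acetone, DMSO, isopropyl alcohol, crop oil concentrate and surfactant, applied at 187 L/ha to young plants (1-2 true leaves).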

[2] = system: Key Grass and Sedge Weeds as well as Grass Crops; test: Post-emergent Test II herbicidal activity (Table 16); assay type: in vivo; conditions: post-emergence, 336 h, 14 d; for pest or weed control at 35 g/ha: 35 g ai/ha; for pest or weed control at 70 g/ha: 70 g ai/ha; for pest or weed control at 140 g/ha: 140 g ai/ha
How it was run: as §1

[3] = Abutilon theophrasti, velvetleaf (Abutilon theophrasti), read-out: Visual Growth Reduction (%) 14 Days After Application, ABUTH
[4] = Amaranthus retroflexus, redroot pigweed (Amaranthus retroflexus), read-out: Visual Growth Reduction (%) 14 Days After Application, AMARE
[5] = Brassica napus, oilseed rape, canola (Brassica napus), read-out: Visual Growth Reduction (%) 14 Days After Application, BRSNN
[6] = Chenopodium album, lambsquarters (Chenopodium album), read-out: Visual Growth Reduction (%) 14 Days After Application, CHEAL
[7] = Euphorbia heterophylla, wild poinsettia (Euphorbia heterophylla), read-out: Visual Growth Reduction (%) 14 Days After Application, EPHHL
[8] = Helianthus annuus, sunflower (Helianthus annuus), read-out: Visual Growth Reduction (%) 14 Days After Application, HELAN
[9] = Cyperus esculentus, yellow nutsedge (Cyperus esculentus), read-out: Visual Growth Reduction (%) 14 Days After Application, CYPES
[10] = Echinochloa crus-galli, barnyardgrass (Echinochloa crus-galli), read-out: Visual Growth Reduction (%) 14 Days After Application, ECHCG
[11] = Oryza sativa, rice (Oryza sativa), read-out: Visual Growth Reduction (%) 14 Days After Application, ORYSA
[12] = Setaria faberi, giant foxtail (Setaria faberi), read-out: Visual Growth Reduction (%) 14 Days After Application, SETFA
[13] = Triticum aestivum, wheat, spring (Triticum aestivum), read-out: Visual Growth Reduction (%) 14 Days After Application, TRZAS
[14] = Zea mays, maize, corn (Zea mays), read-out: Visual Growth Reduction (%) 14 Days After Application, ZEAMX

melting point: 133 to 140 °C
Structure (SMILES): COc1c(C(=O)O)nc(-c2ccc3cc[nH]c3c2F)c(F)c1N [Compound 1.17]
pest or weed control at 35 g/ha [1, 3]: 45 to 59%
pest or weed control at 70 g/ha [1, 3]: 45 to 59%
pest or weed control at 140 g/ha [1, 3]: 60 to 74%
pest or weed control at 35 g/ha [1, 4]: 95 to 100%
pest or weed control at 70 g/ha [1, 4]: 95 to 100%
pest or weed control at 140 g/ha [1, 4]: 95 to 100%
pest or weed control at 35 g/ha [1, 5]: 95 to 100%
pest or weed control at 70 g/ha [1, 5]: 95 to 100%
pest or weed control at 140 g/ha [1, 5]: 95 to 100%
pest or weed control at 35 g/ha [1, 6]: 95 to 100%
pest or weed control at 70 g/ha [1, 6]: 95 to 100%
pest or weed control at 140 g/ha [1, 6]: 95 to 100%
pest or weed control at 35 g/ha [1, 7]: 95 to 100%
pest or weed control at 70 g/ha [1, 7]: 95 to 100%
pest or weed control at 140 g/ha [1, 7]: 95 to 100%
pest or weed control at 35 g/ha [1, 8]: 95 to 100%
pest or weed control at 70 g/ha [1, 8]: 95 to 100%
pest or weed control at 140 g/ha [1, 8]: 95 to 100%
pest or weed control at 35 g/ha [2, 9]: 45 to 59%
pest or weed control at 70 g/ha [2, 9]: 45 to 59%
pest or weed control at 140 g/ha [2, 9]: 45 to 59%
pest or weed control at 35 g/ha [2, 10]: 85 to 94%
pest or weed control at 70 g/ha [2, 10]: 85 to 94%
pest or weed control at 140 g/ha [2, 10]: 85 to 94%
pest or weed control at 35 g/ha [2, 11]: 0 to 29%
pest or weed control at 70 g/ha [2, 11]: 0 to 29%
pest or weed control at 140 g/ha [2, 11]: 0 to 29%
pest or weed control at 35 g/ha [2, 12]: 75 to 84%
pest or weed control at 70 g/ha [2, 12]: 85 to 94%
pest or weed control at 140 g/ha [2, 12]: 85 to 94%
pest or weed control at 35 g/ha [2, 13]: 60 to 74%
pest or weed control at 70 g/ha [2, 13]: 60 to 74%
pest or weed control at 140 g/ha [2, 13]: 60 to 74%
pest or weed control at 35 g/ha [2, 14]: 60 to 74%
pest or weed control at 70 g/ha [2, 14]: 75 to 84%
pest or weed control at 140 g/ha [2, 14]: 75 to 84%

melting point: 203 to 205 °C
Structure (SMILES): COC(=O)c1nc(-c2ccc3cc[nH]c3c2F)c(F)c(N)c1OC [Compound 1.20]
pest or weed control at 35 g/ha [1, 3]: 45 to 59%
pest or weed control at 70 g/ha [1, 3]: 60 to 74%
pest or weed control at 140 g/ha [1, 3]: 60 to 74%
pest or weed control at 35 g/ha [1, 4]: 75 to 84%
pest or weed control at 70 g/ha [1, 4]: 85 to 94%
pest or weed control at 140 g/ha [1, 4]: 95 to 100%
pest or weed control at 35 g/ha [1, 5]: 95 to 100%
pest or weed control at 70 g/ha [1, 5]: 95 to 100%
pest or weed control at 140 g/ha [1, 5]: 95 to 100%
pest or weed control at 35 g/ha [1, 6]: 95 to 100%
pest or weed control at 70 g/ha [1, 6]: 95 to 100%
pest or weed control at 140 g/ha [1, 6]: 95 to 100%
pest or weed control at 35 g/ha [1, 7]: 95 to 100%
pest or weed control at 70 g/ha [1, 7]: 95 to 100%
pest or weed control at 140 g/ha [1, 7]: 95 to 100%
pest or weed control at 35 g/ha [1, 8]: 95 to 100%
pest or weed control at 70 g/ha [1, 8]: 95 to 100%
pest or weed control at 140 g/ha [1, 8]: 95 to 100%
pest or weed control at 35 g/ha [2, 9]: 0 to 29%
pest or weed control at 70 g/ha [2, 9]: 0 to 29%
pest or weed control at 140 g/ha [2, 9]: 0 to 29%
pest or weed control at 35 g/ha [2, 10]: 0 to 29%
pest or weed control at 70 g/ha [2, 10]: 60 to 74%
pest or weed control at 140 g/ha [2, 10]: 75 to 84%
pest or weed control at 35 g/ha [2, 11]: 0 to 29%
pest or weed control at 70 g/ha [2, 11]: 0 to 29%
pest or weed control at 140 g/ha [2, 11]: 0 to 29%
pest or weed control at 35 g/ha [2, 12]: 45 to 59%
pest or weed control at 70 g/ha [2, 12]: 75 to 84%
pest or weed control at 140 g/ha [2, 12]: 85 to 94%
pest or weed control at 35 g/ha [2, 13]: 0 to 29%
pest or weed control at 70 g/ha [2, 13]: 45 to 59%
pest or weed control at 140 g/ha [2, 13]: 60 to 74%
pest or weed control at 35 g/ha [2, 14]: 30 to 44%
pest or weed control at 70 g/ha [2, 14]: 45 to 59%
pest or weed control at 140 g/ha [2, 14]: 60 to 74%

melting point: 233 to 236 °C
Structure (SMILES): COC(=O)c1nc(-c2cccc3[nH]ccc23)c(F)c(N)c1Cl [Compound 1.40]
pest or weed control at 35 g/ha [1, 3]: 0 to 29%
pest or weed control at 70 g/ha [1, 3]: 0 to 29%
pest or weed control at 140 g/ha [1, 3]: 0 to 29%
pest or weed control at 70 g/ha [1, 4]: 95 to 100%
pest or weed control at 35 g/ha [1, 5]: 0 to 29%
pest or weed control at 70 g/ha [1, 5]: 0 to 29%
pest or weed control at 140 g/ha [1, 5]: 0 to 29%
pest or weed control at 35 g/ha [1, 6]: 0 to 29%
pest or weed control at 70 g/ha [1, 6]: 0 to 29%
pest or weed control at 140 g/ha [1, 6]: 0 to 29%
pest or weed control at 35 g/ha [1, 7]: 0 to 29%
pest or weed control at 70 g/ha [1, 7]: 0 to 29%
pest or weed control at 140 g/ha [1, 7]: 0 to 29%
pest or weed control at 35 g/ha [1, 8]: 0 to 29%
pest or weed control at 70 g/ha [1, 8]: 30 to 44%
pest or weed control at 140 g/ha [1, 8]: 45 to 59%
pest or weed control at 35 g/ha [2, 9]: 0 to 29%
pest or weed control at 70 g/ha [2, 9]: 0 to 29%
pest or weed control at 140 g/ha [2, 9]: 0 to 29%
pest or weed control at 35 g/ha [2, 10]: 0 to 29%
pest or weed control at 70 g/ha [2, 10]: 0 to 29%
pest or weed control at 140 g/ha [2, 10]: 0 to 29%
pest or weed control at 35 g/ha [2, 11]: 0 to 29%
pest or weed control at 70 g/ha [2, 11]: 0 to 29%
pest or weed control at 140 g/ha [2, 11]: 0 to 29%
pest or weed control at 35 g/ha [2, 12]: 0 to 29%
pest or weed control at 70 g/ha [2, 12]: 0 to 29%
pest or weed control at 140 g/ha [2, 12]: 0 to 29%
pest or weed control at 35 g/ha [2, 13]: 0 to 29%
pest or weed control at 70 g/ha [2, 13]: 0 to 29%
pest or weed control at 140 g/ha [2, 13]: 0 to 29%
pest or weed control at 35 g/ha [2, 14]: 0 to 29%
pest or weed control at 70 g/ha [2, 14]: 0 to 29%
pest or weed control at 140 g/ha [2, 14]: 0 to 29%
